In US11229633B2, “Arimoclomol formulation” (Orphazyme A/S, priority 2014, dated 2022):

Columns and labels:
human OAT1 = biological target: T1, human OAT1 (Homo sapiens, UniProt Q4U2R8); experiment: Uptake transporter substrate feasibility assay, OAT1; format: in vitro ADME; parameters: key to Substrate: NIO: No interaction observed
T1 construct: expressed in transfected cells; host or cells: CHO (protocol UPT-CHO-OAT1-Tenofovir; control: parental CHO-K1)
T1 sequence (Q4U2R8 1-563): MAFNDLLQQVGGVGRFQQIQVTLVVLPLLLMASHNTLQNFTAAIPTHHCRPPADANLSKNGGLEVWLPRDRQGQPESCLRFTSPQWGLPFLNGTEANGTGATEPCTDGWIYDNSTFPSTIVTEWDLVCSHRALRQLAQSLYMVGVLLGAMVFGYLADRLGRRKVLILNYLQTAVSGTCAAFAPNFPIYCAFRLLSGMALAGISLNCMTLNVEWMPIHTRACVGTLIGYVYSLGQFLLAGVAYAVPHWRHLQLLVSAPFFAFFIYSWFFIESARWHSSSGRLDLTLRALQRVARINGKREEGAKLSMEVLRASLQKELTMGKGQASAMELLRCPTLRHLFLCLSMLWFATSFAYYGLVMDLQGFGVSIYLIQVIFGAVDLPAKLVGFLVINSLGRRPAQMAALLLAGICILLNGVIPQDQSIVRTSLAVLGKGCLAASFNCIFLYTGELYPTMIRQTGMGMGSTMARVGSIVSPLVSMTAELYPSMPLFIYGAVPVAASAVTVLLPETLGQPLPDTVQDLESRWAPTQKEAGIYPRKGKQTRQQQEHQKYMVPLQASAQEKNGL
Protocol: Uptake experiments were performed using CHO, MDCKII, or HEK293 cells stably expressing the respective uptake transporters.
Cells were cultured at 37±1° C. in an atmosphere of 95:5 air:CO2 as described in Table 4 and were plated onto standard 24-well tissue culture plates at 2×10^5 cells/well. The uptake of the TA was determined using cells overexpressing the respective uptake transporter and control cells, at two incubation time points (2 and 20 min) and at two concentrations (1 and 10 μM) of TA to determine whether or not the TA was actively taken up into the cells.
Before the experiment, the medium was removed and the cells were washed twice with 300 μl of HK buffer (pH 7.4) (prepared from Sigma chemicals). Cellular uptake of TA into the cells was measured by adding 300 μl of HK buffer containing TA and incubating them at 37±1° C. Reactions were quenched by removing the HK buffer containing the TA and the cells were washed twice with 300 μl of HK buffer. Cells were lysed by adding 300 μl of MeOH:H2O (2:1) and incubated for 20 minutes at 4±1° C. The amount of TA in the cell lysate was determined by LC-MS/MS. The amount of protein in each well was quantified using the BCA kit for protein determination (Sigma-Aldrich, St Louis, Mo., USA). Uptake of the probe substrate in control cells provided background activity values for all data points. Incubation without reference inhibitor (solvent only) provided 100% activity values. A reference inhibitor served as positive control for inhibition.
The fold accumulation value was defined as the ratio of uptake of TA or probe substrate into transfected and control cells:
[formula] UPTTRP: accumulated amount of TA or probe substrate in transfected cells normalized by protein content [pmol/mg protein] UPTCTL: accumulated amount of TA or probe substrate in control cells normalized by protein content [pmol/mg protein]
If the fold accumulation is >2 and can be inhibited by a known inhibitor of the transporter, the TA can be considered to be a substrate of the respective transporter.

[1] = Solubility of test article in water and methanol; format: physicochemical; settings: 25° C.
[2] = cited from earlier work
OATP1B1 = biological target: T2, OATP1B1 (Homo sapiens, UniProt Q9Y6L6); experiment: Substrate statement, OATP1B1; format: in vitro ADME
T2 sequence (Q9Y6L6 1-691): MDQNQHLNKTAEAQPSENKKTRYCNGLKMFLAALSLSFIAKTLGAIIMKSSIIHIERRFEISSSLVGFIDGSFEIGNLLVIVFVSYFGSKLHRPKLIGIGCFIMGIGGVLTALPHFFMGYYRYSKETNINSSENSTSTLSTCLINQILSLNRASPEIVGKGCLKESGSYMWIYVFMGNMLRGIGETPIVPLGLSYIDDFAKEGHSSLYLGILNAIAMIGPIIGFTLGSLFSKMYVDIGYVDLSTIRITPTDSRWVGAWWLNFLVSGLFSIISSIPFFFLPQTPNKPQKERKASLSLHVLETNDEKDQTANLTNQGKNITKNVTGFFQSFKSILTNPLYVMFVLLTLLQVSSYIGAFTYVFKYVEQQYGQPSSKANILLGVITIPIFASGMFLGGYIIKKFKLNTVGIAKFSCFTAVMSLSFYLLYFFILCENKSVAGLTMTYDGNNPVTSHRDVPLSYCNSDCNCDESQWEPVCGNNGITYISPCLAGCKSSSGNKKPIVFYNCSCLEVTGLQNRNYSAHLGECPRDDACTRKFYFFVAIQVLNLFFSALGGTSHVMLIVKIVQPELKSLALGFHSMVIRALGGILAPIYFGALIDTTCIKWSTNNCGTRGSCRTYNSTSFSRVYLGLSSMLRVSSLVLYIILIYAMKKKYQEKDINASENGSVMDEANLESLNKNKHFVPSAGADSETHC

SMILES: [O-][n+]1cccc(C(Cl)=NOCC(O)CN2CCCCC2)c1 (stereo not shown) [Arimoclomol, N-[2-hydroxy-3-(1-piperidinyl)-propoxy]-pyridine-1-oxide-3-carboximidoyl chloride]
- Substrate of the transporter (in words) (human OAT1): not a substrate
- Fold accumulation (human OAT1; 1 μM, 2 min): 0.77
- Fold accumulation (human OAT1; 1 μM, 20 min): 0.75
- Fold accumulation (human OAT1; 10 μM, 2 min): 0.56
- Fold accumulation (human OAT1; 10 μM, 20 min): 0.73
- Fold accumulation (human OAT1; 1 and 10 μM, 2 and 20 min): < 2
- Substrate (human OAT1; Table 2): NIO
- Solubility ([1]; methanol): 0.4 g/100 mL
- Solubility ([1]; water): 14 g/100 mL
- maximum tolerated dose ([2]; healthy human volunteers): no maximum tolerated dose has been reached
- safety and tolerability ([2]; oral single ascending or repeated doses 50 to 800 mg, 261 subjects): safe and well-tolerated
- serum creatinine levels ([2]; single- and multiple-dose Phase I studies): slight and reversible increases
- Substrate of the transporter (in words) (OATP1B1): not a substrate
